One compound from US11549115B2, “Compositions and methods for regulated gene expression” (YALE UNIVERSITY, priority 2017, dated 2023) can be followed below.

This data set can be described thus: Sialic acid in murine fecal samples (LC-MS/MS). The class given is in vivo. The conditions noted are these: Swiss Webster, mouse, faeces; oral gavage, gnotobiotic mice monocolonized with B. thetaiotaomicron BT0455. Here is the method:
Groups of 6 germ-free Swiss Webster mice were orally gavaged with 1×10^9 CFU of the desired B. thetaiotaomicron strain. Fecal samples (˜100-200 mg) were collected daily for 12 days. aTC (100 μg/mL) was administered in drinking water for 12 hours after fecal collection on day 1. Fecal samples were homogenized in 1 mL of 1× tris-buffered saline (TBS) with a single 5 mm stainless steel bead using a bead beater (BioSpec Products) at 26° C. for 1 minute on the high setting, followed by vortexing at top speed for 8 minutes. Samples were then centrifuged at 500×g for 1 minute to pellet fibrous and insoluble matter. […]
For sialic acid measurements, 5 μL of internal standard solution (50 μM 1,2,3-^13C3 sialic acid in H2O) were added to each sample (20 μL) and proteins were precipitated through addition of 100 μL organic solvents at −20° C. […] The MassHunter Quantitative Analysis Software (Agilent, version 7.0) was used for peak integration with the most abundant ion fragment as quantifier and the others as qualifiers of the peak. Quantification was based on calibration curves using commercially available sialic acid and the signal intensity of the internal standard spiked into each sample.

A word on the half-life: it is how long it takes for the measured level to halve. Read a low half-life as fast loss. Turning to `CC(=O)N[C@H]1[C@H]([C@H](O)[C@H](O)CO)OC(O)(C(=O)O)C[C@@H]1O` (stereo partly shown) [sialic acid, N-acetylneuraminic acid], the half-life is about 9 h.
